Test results: patent US20250340561A1, “QUINAZOLINE COMPOUND FOR INDUCING DEGRADATION OF G12D MUTANT KRAS PROTEIN” (Astellas Pharma Inc., priority 2021, published 2025)
Where a name gives a salt, the structure may show the parent alone. Read-outs that look alike come from different tables or passages of the source.

Tests used:
[1] = system: phosphorylation of ERK (Thr202/Tyr204); experiment: Test Example 2: ERK phosphorylation inhibition action in AsPC-1, Cell ELISA; type: cell-based, human; settings: Homo sapiens, ASPC1, 24 h, AsPC-1 cells, 0% = 1 μM trametinib
Description: Test Example 2: Evaluation of ERK Phosphorylation Inhibition Action on Human G12D Mutant KRAS-Positive Pancreatic Cancer Line AsPC-1
The ERK phosphorylation inhibition action of test compounds was evaluated by measuring phosphorylation of the 202th threonine (Thr202) and the 204th tyrosine (Tyr204) of ERK located downstream of the KRAS signal by Cell ELISA.
AsPC-1 cells were seeded on a 384-well plate (from Greiner bio-one) at 36 μL/well to give 2.0×10^4 cells per well. As for the cell culture conditions, a RPMI 1640 medium containing 10% fetal bovine serum was used in the presence of 5% CO2 at 37° C.
The next day, the test compounds (6 points having final concentrations in the range of 10 μM to 3.0 nM), trametinib (MEK inhibitor) of a final concentration of 1 μM as a positive control and DMSO, which was the solvent for the test compounds, as a negative control were diluted 100-fold with a fresh medium and were added at 4 μL per well. The cells were then cultured for 24 hours. After culturing, a 30% glyoxal solution (40% glyoxal [from Nacalai Tesque] was diluted with PBS) was quickly added at 30 μL per well, and the plate was allowed to stand for 90 minutes at room temperature to thus immobilize the cells. Then, the plate was centrifuged to remove the supernatant (using a centrifugal dehydrator machine, the supernatant was removed by the same method hereinafter), and 0.1% Triton X-100-containing PBS was added at 20 μL per well. After allowing to stand for 10 minutes at room temperature, the supernatant was removed by centrifugation, and the same operation was further repeated. Next, 0.5% SDS-containing PBS was added at 20 μL per well, and after allowing to stand at room temperature for 30 minutes, the supernatant was removed by centrifugation. Subsequently, a blocking solution (Intercept Blocking Buffer) was added at 20 μL per well, and the plate was allowed to stand for 1 hour at room temperature. The supernatant was removed by centrifugation, and an ERK (Thr202/Tyr204) phosphorylation antibody (Phospho-p44/42 MAPK (Erk 1/2) (Thr202/Tyr204) (D13.14.4E) XP Rabbit mAb; from Cell Signaling Technology) diluted 2,500-fold with a blocking solution was added at 10 or 15 μL per well as a primary antibody. The plate was allowed to stand at 4° C. overnight.
The next day, the plate was centrifuged to remove the supernatant. 0.05% Tween-20-containing PBS was added at 50 μL per well, and the supernatant was removed by centrifugation to thus wash each well. The washing was performed three times in total. After washing, Goat anti-Rabbit IgG H&L (IRDye 800CW) diluted 1,000-fold with a blocking solution was added at […] as a secondary antibody, and the plate was allowed to stand for 1 hour at room temperature. The plate was centrifuged to remove the supernatant, and each well was washed three times with 0.05% Tween-20-containing PBS in the same manner as after the primary antibody reaction. After removing the supernatant by centrifuging the plate, the plate was dried as it was with air at room temperature for 3 hours or more, and the 800-nm fluorescent signals were measured with Aerius.
With the signaling value at the time of addition of DMSO taken as 100% and with the signaling value at the time of addition of 1 μM trametinib taken as 0%, the 50% inhibition values (IC50) were calculated by Sigmoid-Emax model nonlinear regression analysis. The molecular weights of the test compounds were calculated as the molecular weights of the dihydrochloride for Example No. 22, the trihydrochlorides for Example Nos. 2-7, 9-12, 14-18 and 30, the tetrahydrochlorides for Example Nos. 19 and 46, the pentahydrochloride for Example No. 21 and the free forms forming no salt for the remaining Example Nos. The results for some test compounds of the formula (I) are shown in Table 3.

[2] = system: human G12D mutant KRAS-positive pancreatic cancer line AsPC-1; experiment: Test Example 3: non-anchorage-dependent cell growth inhibition, spheroid 3D cell culture; type: cell-based; settings: Homo sapiens, ASPC1, 144 h, AsPC-1 spheroid 3D culture, 6 days, CellTiter Glo 2.0
Description: Test Example 3: Evaluation of Non-Anchorage-Dependent Cell Growth Inhibition Action on Human G12D Mutant KRAS-Positive Pancreatic Cancer Line AsPC-1
The non-anchorage-dependent cell growth inhibition action of test compounds was evaluated by spheroid 3D cell culture.
AsPC-1 cells were seeded on a low-cell-adhesive round bottom 384-well plate (PrimeSurface: from Sumitomo Bakelite) at 36 μL/well to give 5×10^2 cells per well. The cell culture was performed under the same conditions as in the Test Example 2.
The next day, the test compounds (6 points having final concentrations in the range of 10 μM to 3.0 nM) and DMSO, which was the solvent for the test compounds, as a negative control were diluted 100-fold with a fresh medium and were added at 4 μL per well. After culturing in the presence of […] at 37° C. for 6 days, CellTiter Glo 2.0 (from Promega) was added at 20 μL per well. After stirring with a plate mixer (from FINEPCR) at normal temperature for 1 hour, the luminescent signals were measured with ARVO X3 (from PerkinElmer).
With the signaling value in treatment with DMSO taken as […] and with the signaling value in the medium alone without cells taken as […], the […] inhibition values (IC50) were calculated by Sigmoid-Emax model nonlinear regression analysis. The molecular weights of the test compounds were calculated as the molecular weights of the dihydrochloride for Example No. 22, the trihydrochlorides for Example Nos. 2-7, 9-12, 14-18 and 30, the tetrahydrochlorides for Example Nos. 19 and 46, the pentahydrochloride for Example No. 21 and the free forms forming no salt for the remaining Example Nos. The results for some test compounds of the formula (I) are shown in Table 4.

Row | SMILES | IC50 [1] | IC50 [2] | IC50 ([1]; read-out: IC50) | IC50 ([2]; read-out: IC50)
1 | CO[C@@H](C)COc1nc(N2C[C@@H]3C[C@H]2CN3)c2cc(C3CC3)c(-c3c(C)c(F)cc4[nH]ncc34)c(OCc3ccc(-c4cn([C@H](C(=O)N5C[C@H](O)C[C@H]5C(=O)N[C@@H](CO)c5ccc(N6CCOC6=O)cc5)C(C)C)nn4)cc3)c2n1 [Example 59] | 0.026 µM | 0.07 µM | – | –
2 | Cc1ncoc1-c1ccc([C@H](CO)NC(=O)[C@@H]2C[C@@H](O)CN2C(=O)[C@H](C(C)C)n2cc(-c3ccc(COc4c(-c5c(C)c(F)cc6[nH]ncc56)c(C5CC5)cc5c(N6C[C@@H]7C[C@H]6CN7)nc(OC6CCOCC6)nc45)cc3)nn2)cc1 [Example 38] | 0.028 µM | 0.027 µM | – | –
3 | Cc1ncsc1-c1ccc([C@H](CO)NC(=O)[C@@H]2C[C@@H](O)CN2C(=O)[C@H](C(C)C)n2cc(-c3ccc(COc4c(-c5c(C)c(F)cc6[nH]ncc56)c(C5CC5)cc5c(N6C[C@@H]7C[C@H]6CN7)nc(O[C@@H]6CCOC6)nc45)cc3)nn2)cc1 [Example 28] | 0.012 µM | 0.037 µM | – | –
4 | Cc1ncsc1-c1ccc([C@H](CO)NC(=O)[C@@H]2C[C@@H](O)CN2C(=O)[C@H](C(C)C)n2cc(-c3ccc(COc4c(-c5c(C)c(F)cc6[nH]ncc56)c(C5CC5)cc5c(N6C[C@@H]7C[C@H]6CN7)nc(OC6CCOCC6)nc45)cc3)nn2)cc1 [Example 7, (4R)-1-[(2S)-2-(4-{4-[({6-cyclopropyl-4-[(1S,4S)-2,5-diazabicyclo[2.2.1]heptan-2-yl]-7-(6-fluoro-5-methyl-1H-indazol-4-yl)-2-[(oxan-4-yl)oxy]quinazolin-8-yl}oxy)methyl]phenyl}-1H-1,2,3-triazol-1-yl)-3-methylbutanoyl]-4-hydroxy-N-{(1R)-2-hydroxy-1-[4-(4-methyl-1,3-thiazol-5-yl)phenyl]ethyl}-L-prolinamide n hydrochloride] | – | – | 0.017 µM | 0.031 µM
5 | Cc1ncsc1-c1ccc([C@H](CO)NC(=O)[C@@H]2C[C@@H](O)CN2C(=O)[C@H](C(C)C)n2cc(-c3ccc(COc4c(-c5c(C)c(F)cc6[nH]ncc56)c(C5CC5)cc5c(N6C[C@@H]7C[C@H]6CN7)nc(OC[C@@H]6CCOC6)nc45)cc3)nn2)cc1 [Example 50] | 0.01 µM | 0.021 µM | – | –
6 | Cc1ncsc1-c1ccc(C2(NC(=O)[C@@H]3C[C@@H](O)CN3C(=O)[C@@H](NC(=O)c3ccc(COc4c(-c5c(C)c(F)cc6[nH]ncc56)c(C5CC5)cc5c(N6C[C@@H]7C[C@H]6CN7)nc(OC6CCOCC6)nc45)cn3)C(C)C)CC2)cc1 [Example 2] | 0.779 µM | 1.41 µM | – | –
7 | Cc1ncsc1-c1ccc([C@H](CO)NC(=O)[C@@H]2C[C@@H](O)CN2C(=O)[C@H](C(C)C)n2cc(-c3ccc(COc4c(-c5c(C)c(F)cc6[nH]ncc56)c(C5CC5)cc5c(N6C[C@@H]7C[C@H]6CN7)nc(O[C@H]6CCN(CC(F)F)C6)nc45)cc3)nn2)cc1 [Example 33] | 0.032 µM | 0.042 µM | – | –
8 | COC[C@H](C)Oc1nc(N2C[C@@H]3C[C@H]2CN3)c2cc(C3CC3)c(-c3c(C)c(F)cc4[nH]ncc34)c(OCc3ccc(-c4cn([C@H](C(=O)N5C[C@H](O)C[C@H]5C(=O)N[C@@H](CO)c5ccc(-c6scnc6C)cc5)C(C)C)nn4)cc3)c2n1 [Example 54] | 0.018 µM | 0.024 µM | – | –
9 | Cc1ncsc1-c1ccc([C@@H](CO)NC(=O)[C@@H]2C[C@@H](O)CN2C(=O)[C@H](C(C)C)n2cc(-c3ccc(COc4c(-c5c(C)c(F)cc6[nH]ncc56)c(C5CC5)cc5c(N6C[C@@H]7C[C@H]6CN7)nc(OC6CCOCC6)nc45)cc3)nn2)cc1 [Example 68] | – | – | 2.21 µM | 1.63 µM
10 | Cc1ncsc1-c1ccc([C@H](CO)NC(=O)[C@@H]2C[C@@H](O)CN2C(=O)[C@H](C(C)C)n2cc(-c3ccc(COc4c(-c5c(C)c(F)cc6[nH]ncc56)c(C5CC5)cc5c(N6C[C@@H]7C[C@H]6CN7)nc(OC6CCN(C7COC7)CC6)nc45)cc3)nn2)cc1 [Example 24] | 0.025 µM | 0.055 µM | – | –
11 | Cc1ncsc1-c1ccc([C@H](CO)NC(=O)[C@@H]2C[C@@H](O)CN2C(=O)[C@H](C(C)C)n2cc(-c3ccc(COc4c(-c5c(C)c(F)cc6[nH]ncc56)c(C5CC5)cc5c(N6C[C@@H]7C[C@H]6CN7)nc(O[C@H]6CCOC6)nc45)cc3)nn2)cc1 [Example 29] | 0.015 µM | 0.042 µM | – | –
12 | CO[C@@H](C)COc1nc(N2C[C@@H]3C[C@H]2CN3)c2cc(C3CC3)c(-c3c(C)c(F)cc4[nH]ncc34)c(OCc3ccc(-c4cn([C@H](C(=O)N5C[C@H](O)C[C@H]5C(=O)N[C@@H](CO)c5ccc(-n6ccnc6C)cc5)C(C)C)nn4)cc3)c2n1 [Example 71] | – | – | 0.038 µM | 0.051 µM
13 | Cc1ncsc1-c1ccc([C@H](CO)NC(=O)[C@@H]2C[C@@H](O)CN2C(=O)[C@H](C(C)C)n2cc(-c3ccc(COc4c(-c5c(C)c(F)cc6[nH]ncc56)c(C5CC5)cc5c(N6C[C@@H]7C[C@H]6CN7)nc(O[C@@H](C)[C@H](C)O)nc45)cc3)nn2)cc1 [Example 42] | 0.022 µM | 0.046 µM | – | –
14 | CO[C@@H](C)[C@H](C)Oc1nc(N2C[C@@H]3C[C@H]2CN3)c2cc(C3CC3)c(-c3c(C)c(F)cc4[nH]ncc34)c(OCc3ccc(-c4cn([C@H](C(=O)N5C[C@H](O)C[C@H]5C(=O)N[C@@H](CO)c5ccc(-c6scnc6C)cc5)C(C)C)nn4)cc3)c2n1 [Example 41] | 0.017 µM | 0.031 µM | – | –
15 | Cc1ncsc1-c1ccc([C@H](CO)NC(=O)[C@@H]2C[C@@H](O)CN2C(=O)[C@H](C(C)C)n2cc(-c3ccc(COc4c(-c5cc(O)cc(F)c5C)c(C5CC5)cc5c(N6C[C@@H]7C[C@H]6CN7)nc(OC6CCOCC6)nc45)cc3)nn2)cc1 [Example 15] | 0.022 µM | 0.064 µM | – | –
16 | CC[C@@H](C)Oc1nc(N2C[C@@H]3C[C@H]2CN3)c2cc(C3CC3)c(-c3c(C)c(F)cc4[nH]ncc34)c(OCc3ccc(-c4cn([C@H](C(=O)N5C[C@H](O)C[C@H]5C(=O)N[C@@H](CO)c5ccc(-c6scnc6C)cc5)C(C)C)nn4)cc3)c2n1 [Example 43] | 0.011 µM | 0.016 µM | – | –
